Results published in article PMC10728895, “Stapled Phd Peptides Inhibit Doc Toxin Induced Growth Arrest in Salmonella” (ACS Chemical Biology, 2023).
Positions of bridges follow the written chain, without caps; N, C: chain ends. Non-standard residues stand in square brackets, D forms with d. Residues, ends and D or L forms follow the SMILES beside them. S5 = C=CCCC[C@](C)(N)C(=O)O; Nle = CCCC[C@H](N)C(=O)O

Tested on: DocSTm toxin
Conditions: DocSTm 5 μM, peptide 50 μM, SYPRO Orange 3×, 20 mM K2HPO4, 50 mM (NH4)2SO4, pH 8.0; average Tm with peptide minus average Tm of free DocSTm; mean ± SD
Procedure: The thermal shift assay was performed using a Mx3005P qPCR System (Agilent) collecting fluorescence data with a temperature ramp of 25 to 95 °C. Samples were prepared in a buffer containing 20 mM K2HPO4 and 50 mM (NH4)2SO4 at pH 8.0, with a final concentration of recombinant Doc protein at 5 μM and Phd peptides at 50 μM. SYPRO Orange dye (Sigma-Aldrich, 5000X stock in DMSO) was used to monitor protein denaturation in a final concentration of 3×. The final sample volume was 20 μL. Each condition was prepared in triplicate in each independent experiment. The melting curves were plotted using GraphPad Prism 9 (GraphPad Software, USA), and the melting temperatures were obtained by fitting the sigmoidal section of the curves to a Boltzmann sigmoid function. For the calculation of thermal shifts ΔTm, the average melting temperature of free DocSTm toxin as determined in the respective peptide measurement cycles was subtracted from the average melting temperature of DocSTm in the presence of the peptide (Table S3).

Row | Structure (SMILES) | ΔTm (thermal shift) of DocSTm in the presence of peptide
1 | CCCC[C@H](NC(=O)[C@H](Cc1c[nH]c2ccccc12)NC(C)=O)C(=O)N[C@@H](CCCNC(=N)N)C(=O)N[C@@H](CCCNC(=N)N)C(=O)N[C@@H](CCC(=O)O)C(=O)N[C@@H](Cc1ccccc1)C(=O)N[C@@H](CCCNC(=N)N)C(=O)N[C@@H](CCCNC(=N)N)C(=O)N[C@H](C(=O)N[C@@H](CCCC)C(=O)N[C@@H](CCCNC(=N)N)C(=O)N[C@H](C(=O)N[C@@H](Cc1c[nH]cn1)C(=O)NCC(=O)N[C@@H](CC(N)=O)C(=O)N[C@@H](CCC(=O)O)C(=O)N[C@@H](CC(C)C)C(=O)N[C@@H](CCCNC(=N)N)C(=O)N[C@@H](CCC(=O)O)C(=O)N[C@@H](CC(C)C)C(=O)N[C@@H](C)C(=O)N[C@@H](CC(=O)O)C(=O)N[C@@H](CCCCN)C(=O)O)C(C)C)[C@@H](C)CC [Peptide 14] (Ac-W[Nle]RREFRRI[Nle]RVHGNELRELADK-OH) | 11–13 °C
2 | CCCC[C@H](NC(=O)[C@H](Cc1c[nH]c2ccccc12)NC(C)=O)C(=O)N[C@@H](CCCNC(=N)N)C(=O)N[C@@H](CCCNC(=N)N)C(=O)N[C@@H](CCC(=O)O)C(=O)N[C@@H](Cc1ccccc1)C(=O)N[C@@H](CCCNC(=N)N)C(=O)N[C@@H](CCCNC(=N)N)C(=O)N[C@H](C(=O)N[C@@H](CCCC)C(=O)N[C@@H](CCCNC(=N)N)C(=O)N[C@H](C(=O)N[C@@H](Cc1c[nH]cn1)C(=O)NCC(=O)N[C@@H](CCCNC(=N)N)C(=O)N[C@@H](CCC(=O)O)C(=O)N[C@@H](CC(C)C)C(=O)N[C@@H](CCCNC(=N)N)C(=O)N[C@@H](CCC(=O)O)C(=O)N[C@@H](CC(C)C)C(=O)N[C@@H](C)C(=O)N[C@@H](CC(=O)O)C(=O)N[C@@H](CCCCN)C(=O)O)C(C)C)[C@@H](C)CC [Peptide 15] (Ac-W[Nle]RREFRRI[Nle]RVHGRELRELADK-OH) | 11–13 °C

Same assay, conditions: DocSTm 5 μM, peptide 50 μM, pH 8.0; average ± SD, replicates 3-48 (Table S3)

Row | Structure (SMILES) | Average Tm of DocSTm in the presence of peptide
3 | CCCC[C@H](NC(=O)[C@H](Cc1c[nH]c2ccccc12)NC(C)=O)C(=O)N[C@@H](CC(=O)O)C(=O)N[C@@H](CC(=O)O)C(=O)N[C@@H](CCC(=O)O)C(=O)N[C@@H](Cc1ccccc1)C(=O)N[C@@H](C)C(=O)N[C@@H](C)C(=O)N[C@H](C(=O)N[C@@H](CCCC)C(=O)N[C@@H](C)C(=O)N[C@H](C(=O)N[C@@H](Cc1c[nH]cn1)C(=O)NCC(=O)N[C@@H](CC(N)=O)C(=O)N[C@@H](CCC(=O)O)C(=O)N[C@@H](CC(C)C)C(=O)N[C@@H](CCCNC(=N)N)C(=O)N[C@@H](CCC(=O)O)C(=O)N[C@@H](CC(C)C)C(=O)N[C@@H](C)C(=O)N[C@@H](CCCNC(=N)N)C(=O)N[C@@H](CCCCN)C(=O)O)C(C)C)[C@@H](C)CC [Peptide 13] (Ac-W[Nle]DDEFAAI[Nle]AVHGNELRELARK-OH) | 72.7 ± 0.4 °C
4 | CCCC[C@H](NC(=O)[C@H](Cc1c[nH]c2ccccc12)NC(C)=O)C(=O)N[C@@H](CCCNC(=N)N)C(=O)N[C@@H](CCCNC(=N)N)C(=O)N[C@@H](CCC(=O)O)C(=O)N[C@@H](Cc1ccccc1)C(=O)N[C@@H](CCCNC(=N)N)C(=O)N[C@@H](CCCNC(=N)N)C(=O)N[C@H](C(=O)N[C@@H](CCCC)C(=O)N[C@@H](CCCNC(=N)N)C(=O)N[C@H](C(=O)N[C@@H](Cc1c[nH]cn1)C(=O)NCC(=O)N[C@@H](CC(N)=O)C(=O)N[C@@H](CCC(=O)O)C(=O)N[C@@H](CC(C)C)C(=O)N[C@@H](CCCNC(=N)N)C(=O)N[C@@H](CCC(=O)O)C(=O)N[C@@H](CC(C)C)C(=O)N[C@@H](C)C(=O)N[C@@H](CC(=O)O)C(=O)N[C@@H](CCCCN)C(=O)O)C(C)C)[C@@H](C)CC [Peptide 14] (Ac-W[Nle]RREFRRI[Nle]RVHGNELRELADK-OH) | 56.0 ± 0.1 °C
5 | CCCC[C@H](NC(=O)[C@H](Cc1c[nH]c2ccccc12)NC(C)=O)C(=O)N[C@@H](CCCNC(=N)N)C(=O)N[C@@H](CCCNC(=N)N)C(=O)N[C@@H](CCC(=O)O)C(=O)N[C@@H](Cc1ccccc1)C(=O)N[C@@H](CCCNC(=N)N)C(=O)N[C@@H](CCCNC(=N)N)C(=O)N[C@H](C(=O)N[C@@H](CCCC)C(=O)N[C@@H](CCCNC(=N)N)C(=O)N[C@H](C(=O)N[C@@H](Cc1c[nH]cn1)C(=O)NCC(=O)N[C@@H](CCCNC(=N)N)C(=O)N[C@@H](CCC(=O)O)C(=O)N[C@@H](CC(C)C)C(=O)N[C@@H](CCCNC(=N)N)C(=O)N[C@@H](CCC(=O)O)C(=O)N[C@@H](CC(C)C)C(=O)N[C@@H](C)C(=O)N[C@@H](CC(=O)O)C(=O)N[C@@H](CCCCN)C(=O)O)C(C)C)[C@@H](C)CC [Peptide 15] (Ac-W[Nle]RREFRRI[Nle]RVHGRELRELADK-OH) | 57.8 ± 0.7 °C
6 | CCCC[C@H](NC(=O)[C@H](Cc1c[nH]c2ccccc12)NC(C)=O)C(=O)N[C@@H](CCCNC(=N)N)C(=O)N[C@@H](CC(N)=O)C(=O)N[C@@H](CCC(N)=O)C(=O)N[C@@H](Cc1ccccc1)C(=O)N[C@@H](C)C(=O)N[C@@H](C)C(=O)N[C@H](C(=O)N[C@@H](CCCC)C(=O)N[C@@H](CCCNC(=N)N)C(=O)N[C@H](C(=O)N[C@@H](Cc1c[nH]cn1)C(=O)NCC(=O)N[C@@H](CC(N)=O)C(=O)N[C@@H](CCC(N)=O)C(=O)N[C@@H](CC(C)C)C(=O)N[C@@H](CCCNC(=N)N)C(=O)N[C@@H](CCC(=O)O)C(=O)N[C@@H](CC(C)C)C(=O)N[C@@H](C)C(=O)N[C@@H](CC(N)=O)C(=O)N[C@@H](CCCCN)C(=O)O)C(C)C)[C@@H](C)CC [Peptide 22] (Ac-W[Nle]RNQFAAI[Nle]RVHGNQLRELANK-OH) | 54.7 ± 3.1 °C
7 | CCCC[C@H](NC(=O)[C@H](Cc1c[nH]c2ccccc12)NC(C)=O)C(=O)N[C@@H](CCCNC(=N)N)C(=O)N[C@@H](CC(N)=O)C(=O)N[C@@H](CCC(N)=O)C(=O)N[C@@H](Cc1ccccc1)C(=O)N[C@@H](C)C(=O)N[C@@H](C)C(=O)N[C@H](C(=O)N[C@@H](CCCC)C(=O)N[C@@H](CCCNC(=N)N)C(=O)N[C@H](C(=O)N[C@@H](Cc1c[nH]cn1)C(=O)NCC(=O)N[C@@]1(C)CCCC=CCCC[C@@](C)(C(=O)N[C@@H](CC(C)C)C(=O)N[C@@H](C)C(=O)N[C@@H](CC(N)=O)C(=O)N[C@@H](CCCCN)C(=O)O)NC(=O)[C@H](CCCNC(=N)N)NC(=O)[C@H](CC(C)C)NC(=O)[C@H](CCC(N)=O)NC1=O)C(C)C)[C@@H](C)CC [Peptide 23] (Ac-W[Nle]RNQFAAI[Nle]RVHG[S5]QLR[S5]LANK-OH; staple 15-19) | 57.5 ± 0.9 °C
8 | CCCC[C@H](NC(=O)[C@H](Cc1c[nH]c2ccccc12)NC(C)=O)C(=O)N[C@@H](CCCNC(=N)N)C(=O)N[C@@H](CC(N)=O)C(=O)N[C@@H](CCC(N)=O)C(=O)N[C@@H](Cc1ccccc1)C(=O)N[C@@H](CCCNC(=N)N)C(=O)N[C@@H](C)C(=O)N[C@H](C(=O)N[C@@H](CCCC)C(=O)N[C@@H](CCCNC(=N)N)C(=O)N[C@H](C(=O)N[C@@H](Cc1c[nH]cn1)C(=O)NCC(=O)N[C@@H](CC(N)=O)C(=O)N[C@@H](CCC(N)=O)C(=O)N[C@@H](CC(C)C)C(=O)N[C@@H](CCCNC(=N)N)C(=O)N[C@@H](CCC(=O)O)C(=O)N[C@@H](CC(C)C)C(=O)N[C@@H](C)C(=O)N[C@@H](CC(N)=O)C(=O)N[C@@H](CCCCN)C(=O)O)C(C)C)[C@@H](C)CC [Peptide 24] (Ac-W[Nle]RNQFRAI[Nle]RVHGNQLRELANK-OH) | 54.3 ± 1.6 °C
9 | CCCC[C@H](NC(=O)[C@H](Cc1c[nH]c2ccccc12)NC(C)=O)C(=O)N[C@@H](CCCNC(=N)N)C(=O)N[C@@H](CC(N)=O)C(=O)N[C@@H](CCC(N)=O)C(=O)N[C@@H](Cc1ccccc1)C(=O)N[C@@H](CCCNC(=N)N)C(=O)N[C@@H](C)C(=O)N[C@H](C(=O)N[C@@H](CCCC)C(=O)N[C@@H](CCCNC(=N)N)C(=O)N[C@H](C(=O)N[C@@H](Cc1c[nH]cn1)C(=O)NCC(=O)N[C@@]1(C)CCCC=CCCC[C@@](C)(C(=O)N[C@@H](CC(C)C)C(=O)N[C@@H](C)C(=O)N[C@@H](CC(N)=O)C(=O)N[C@@H](CCCCN)C(=O)O)NC(=O)[C@H](CCCNC(=N)N)NC(=O)[C@H](CC(C)C)NC(=O)[C@H](CCC(N)=O)NC1=O)C(C)C)[C@@H](C)CC [Peptide 25] (Ac-W[Nle]RNQFRAI[Nle]RVHG[S5]QLR[S5]LANK-OH; staple 15-19) | 56.4 ± 3.0 °C
10 | CCCC[C@H](NC(=O)[C@H](Cc1c[nH]c2ccccc12)NC(C)=O)C(=O)N[C@@H](CCCNC(=N)N)C(=O)N[C@@H](CC(N)=O)C(=O)N[C@@H](CCC(=O)O)C(=O)N[C@@H](Cc1ccccc1)C(=O)N[C@@H](C)C(=O)N[C@@H](C)C(=O)N[C@H](C(=O)N[C@@H](CCCC)C(=O)N[C@@H](CCCNC(=N)N)C(=O)N[C@H](C(=O)N[C@@H](Cc1c[nH]cn1)C(=O)NCC(=O)N[C@@H](CC(N)=O)C(=O)N[C@@H](CCC(N)=O)C(=O)N[C@@H](CC(C)C)C(=O)N[C@@H](CCCNC(=N)N)C(=O)N[C@@H](CCC(=O)O)C(=O)N[C@@H](CC(C)C)C(=O)N[C@@H](C)C(=O)N[C@@H](CC(N)=O)C(=O)N[C@@H](CCCCN)C(=O)O)C(C)C)[C@@H](C)CC [Peptide 26] (Ac-W[Nle]RNEFAAI[Nle]RVHGNQLRELANK-OH) | 62.9 ± 0.3 °C
11 | CCCC[C@H](NC(=O)[C@H](Cc1c[nH]c2ccccc12)NC(C)=O)C(=O)N[C@@H](CCCNC(=N)N)C(=O)N[C@@H](CC(N)=O)C(=O)N[C@@H](CCC(=O)O)C(=O)N[C@@H](Cc1ccccc1)C(=O)N[C@@H](CCCNC(=N)N)C(=O)N[C@@H](C)C(=O)N[C@H](C(=O)N[C@@H](CCCC)C(=O)N[C@@H](CCCNC(=N)N)C(=O)N[C@H](C(=O)N[C@@H](Cc1c[nH]cn1)C(=O)NCC(=O)N[C@@H](CC(N)=O)C(=O)N[C@@H](CCC(N)=O)C(=O)N[C@@H](CC(C)C)C(=O)N[C@@H](CCCNC(=N)N)C(=O)N[C@@H](CCC(=O)O)C(=O)N[C@@H](CC(C)C)C(=O)N[C@@H](C)C(=O)N[C@@H](CC(N)=O)C(=O)N[C@@H](CCCCN)C(=O)O)C(C)C)[C@@H](C)CC [Peptide 28] (Ac-W[Nle]RNEFRAI[Nle]RVHGNQLRELANK-OH) | 62.1 ± 0.2 °C
12 | CCCC[C@H](NC(=O)[C@H](Cc1c[nH]c2ccccc12)NC(C)=O)C(=O)N[C@@]1(C)CCCC=CCCC[C@@](C)(C(=O)N[C@@H](C)C(=O)N[C@H](C(=O)N[C@@H](CCCC)C(=O)N[C@@H](C)C(=O)N[C@H](C(=O)N[C@@H](Cc2c[nH]cn2)C(=O)NCC(=O)N[C@@H](CCCNC(=N)N)C(=O)N[C@@H](CCC(N)=O)C(=O)N[C@@H](CC(C)C)C(=O)N[C@@H](CCCNC(=N)N)C(=O)N[C@@H](CCCNC(=N)N)C(=O)N[C@@H](CC(C)C)C(=O)N[C@@H](C)C(=O)N[C@@H](CCCNC(=N)N)C(=O)N[C@@H](CCCCN)C(=O)O)C(C)C)[C@@H](C)CC)NC(=O)[C@H](Cc2ccccc2)NC(=O)[C@H](CCC(=O)O)NC(=O)[C@H](CC(N)=O)NC1=O [Peptide 34] (Ac-W[Nle][S5]NEF[S5]AI[Nle]AVHGRQLRRLARK-OH; staple 3-7) | 58.9 ± 1.1 °C
